Results published in ChEMBL document CHEMBL2203071, “Gambogic acid deactivates cytosolic and mitochondrial thioredoxins by covalent binding to the functional domain” (J Nat Prod, 2012).
Activity calls are given as the source filed them. The calls are words filed in the database; no cut-off is given here.

What was measured:
[1] = molecular target: T1, Thioredoxin, mitochondrial (Homo sapiens) (UniProt Q99757); assay: Covalent binding affinity to human recombinant TRX-2 assessed as change in protein configuration at 0.05 mM by MALDITOF mass spectrometry
T1 sequence (whole entry): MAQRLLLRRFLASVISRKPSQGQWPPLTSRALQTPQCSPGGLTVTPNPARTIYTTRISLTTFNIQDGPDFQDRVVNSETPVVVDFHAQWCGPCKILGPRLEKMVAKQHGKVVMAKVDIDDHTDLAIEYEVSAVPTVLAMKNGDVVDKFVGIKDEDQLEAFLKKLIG

[2] = molecular target: T2, Thioredoxin (Homo sapiens) (UniProt P10599); assay: Covalent binding affinity to human recombinant TRX-1 assessed as change in protein configuration at 0.1 mM by MALDITOF mass spectrometry
T2 sequence (whole entry): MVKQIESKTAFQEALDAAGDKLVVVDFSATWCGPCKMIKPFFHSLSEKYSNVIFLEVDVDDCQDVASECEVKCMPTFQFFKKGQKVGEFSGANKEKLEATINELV

[3] = molecular target: T1, Thioredoxin, mitochondrial (Homo sapiens); assay: Covalent binding affinity to TRX-2 in human […] cells at 3 uM after 2 hrs by immunofluorescence assay; assay type: cell-based
[4] = molecular target: T2, Thioredoxin (Homo sapiens); assay: Covalent binding affinity to TRX-1 in human […] cells at 3 uM after 2 hrs by immunofluorescence assay; assay type: cell-based
[5] = molecular target: T2, Thioredoxin (Homo sapiens); assay: Covalent binding affinity to TRX-1 in human […] cells assessed as compound-TRX-1 adduct formation at 3 uM after 2 hrs by immunoblotting in presence of GSH; assay type: cell-based
[6] = molecular target: T1, Thioredoxin, mitochondrial (Homo sapiens); assay: Covalent binding affinity to TRX-2 in human […] cells assessed as compound-TRX-2 adduct formation at 3 uM after 2 hrs by immunoblotting in presence of GSH; assay type: cell-based
[7] = molecular target: T3, Thioredoxin, mitochondrial (Homo sapiens, UniProt Q99757); assay: (§1) Inhibition of human recombinant TRX-2 up to 60 mins by insulin reduction assay
T3 sequence (Q99757 whole entry): T1 sequence (whole entry)

[8] = molecular target: T1, Thioredoxin, mitochondrial (Homo sapiens); assay: as §1
[9] = molecular target: T2, Thioredoxin (Homo sapiens); assay: Covalent binding affinity to human recombinant TRX-1 assessed as change in protein configuration at 50 uM by LC-ESIQTOF mass spectrometry; settings: TDE = time-dependent effect
[10] = molecular target: T2, Thioredoxin (Homo sapiens); assay: (§2) Inhibition of human recombinant TRX-1 up to 60 mins by insulin reduction assay
Thioredoxin = molecular target: T4, Thioredoxin (Homo sapiens, UniProt P10599); assay: as §2
T4 sequence (P10599 whole entry): T2 sequence (whole entry)

[11] = molecular target: T2, Thioredoxin (Homo sapiens); assay: Inhibition of human recombinant TRX-1 by insulin reduction assay; settings: TDE = time-dependent effect
[12] = molecular target: T1, Thioredoxin, mitochondrial (Homo sapiens); assay: Covalent binding affinity to human recombinant TRX-2 C assessed as modification in C31/C34 residues by LC-MS/MS analysis
[13] = molecular target: T1, Thioredoxin, mitochondrial (Homo sapiens); assay: Covalent binding affinity to human recombinant TRX-2 assessed as change in protein configuration at 20 uM by LC-ESIQTOF mass spectrometry; settings: TDE = time-dependent effect
[14] = molecular target: T2, Thioredoxin (Homo sapiens); assay: Covalent binding affinity to human recombinant TRX-1 C assessed as modification in C62/C69/C73 residues by LC-MS/MS analysis
[15] = molecular target: T1, Thioredoxin, mitochondrial (Homo sapiens); assay: Inhibition of human recombinant TRX-2 by insulin reduction assay; settings: TDE = time-dependent effect
[16] = molecular target: T2, Thioredoxin (Homo sapiens); assay: Inhibition of TRX1 in human […] cells after 2 hrs by insulin reduction assay; assay type: cell-based

In the case of CC(C)=CCC/C(C)=C/Cc1c(O)c(CC=C(C)C)c2c(c1O)C(=O)C1=C[C@@H]3C[C@H]4C(C)(C)O[C@@](C/C=C(/C)C(=O)O)(C3=O)[C@@]14O2, the Activity [1] is reported as “Active” and the Activity [2] is reported as “Active”.

In the case of CC(C)=CCC[C@]1(C)C=Cc2c(O)c3c(c(CC=C(C)C)c2O1)O[C@]12C(=C[C@@H]4C[C@H]1C(C)(C)O[C@@]2(C/C=C(/C)C(=O)NCCCCCNC(=O)CCCC[C@@H]1SC[C@@H]2NC(=O)N[C@@H]21)C4=O)C3=O, the Activity [3] is reported as “Active”, the Activity [4] is reported as “Active” and the Activity [5] is reported as “Active”. The Activity [6] was “Active”.

For CC(C)=CCC[C@]1(C)C=Cc2c(O)c3c(c(CC=C(C)C)c2O1)O[C@]12C(C3=O)C(O)[C@@H]3C[C@H]1C(C)(C)O[C@@]2(C/C=C(/C)C(=O)O)C3=O (some centres undefined), the Activity [1] was “inactive” and the Activity [2] was “inactive”.

With CC(C)=CCC[C@]1(C)C=Cc2c(O)c3c(c(CC=C(C)C)c2O1)O[C@]12C(C3=O)[C@@H](S(=O)(=O)O)[C@@H]3C[C@H]1C(C)(C)O[C@@]2(C/C=C(/C)C(=O)O)C3=O (some centres undefined) the Activity [1] was “inactive” and the Activity [2] was “inactive”.

For CC(C)=CCC[C@]1(C)C=Cc2c(O)c3c(c(CC=C(C)C)c2O1)O[C@]12C(C3=O)[C@H](S(=O)(=O)O)[C@@H]3C[C@H]1C(C)(C)O[C@@]2(C/C=C(/C)C(=O)O)C3=O (some centres undefined), the Activity [1] was “inactive” and the Activity [2] was “inactive”.

CC(C)=CCC[C@]1(C)C=Cc2c(O)c3c(c(CC=C(C)C)c2O1)O[C@]12C(C[C@@H]4C[C@H]1C(C)(C)O[C@@]2(C/C=C(/C)C(=O)O)C4=O)C3=O (some centres undefined) was tested, and the Activity [1] was “inactive” and the Activity [2] was “inactive”.

With CC(C)=CCC[C@]1(C)C=Cc2c(O)c3c(c(CC=C(C)C)c2O1)O[C@]12C(=C[C@@H]4C[C@H]1C(C)(C)O[C@@]2(C/C=C(/C)C(=O)O)C4=O)C3=O [GAMBOGIC ACID] the Ki [7] was 1310 nM, the Kinact [8] was 0.037 min⁻¹ and the inhibition [8] was “Dose-dependent effect”. The Activity [9] was “tde”, the Kinact [10] was 0.063 min⁻¹ and the inhibition [10] was “Dose-dependent effect”. For the same molecule, the Ki (Thioredoxin) was 3110 nM, the inhibition [11] was “tde” and the Activity [12] was “Active”. The Activity [1] was “Active”, the Activity [13] was “tde” and the Activity [2] was “Active”. The Activity [14] was “Active”, the inhibition [15] was “tde” and the inhibition [16] was “Dose-dependent effect”.
